Assay results from US20230348376A1 (TEIJIN PHARMA LIMITED, priority 2020, published 2023).

tested on: rat oligodendrocyte progenitor cells; assay: Promotive activity of rat oligodendrocyte progenitor cell differentiation-2 (immunostaining of MBP); format: cell-based; details: Test 4; vitamin D derivative 2 μM, T3 30 nM; 4 days
Experimental: The promotive activity of oligodendrocyte progenitor cell (OPC) differentiation of the vitamin D derivatives was evaluated by immunostaining of MBP.
Subsequently, oligodendrocyte progenitor cell separation medium was added to the flask, and the mixture was similarly shaken for about 22 hours (37° C., 200 rpm), and the supernatant was collected to prepare oligodendrocyte progenitor cells.

SMILES	Mean (number of MBP-positive cells/number of Hoechst33342-positive cells)
C=C1/C(=C\C=C2/CCC[C@]3(C)[C@@H]([C@H](C)CN4CCOC[C@@H]4C)CC[C@@H]23)C[C@@H](O)C[C@H]1O [Compound I004, (1R,3R,Z)-5-(2-((1R,3aS,7aR,E)-7a-methyl-1-((S)-1-((S)-3-methylmorpholino)propan-2-yl)octahydro-4H-inden-4-ylidene)ethylidene)-4-methylenecyclohexane-1,3-diol]	0.44
C=C1/C(=C\C=C2/CCC[C@]3(C)[C@@H]([C@H](C)CN4CCOC[C@H]4C)CC[C@@H]23)C[C@@H](O)C[C@H]1O [Compound I005, (1R,3R,Z)-5-(2-((1R,3aS,7aR,E)-7a-methyl-1-((S)-1-((R)-3-methylmorpholino)propan-2-yl)octahydro-4H-inden-4-ylidene)ethylidene)-4-methylenecyclohexane-1,3-diol]	0.43

same assay, conditions: Test 5; vitamin D derivative 2 μM, T3 30 nM; 4 days

SMILES	Mean (number of MBP-positive cells/number of Hoechst33342-positive cells)
C=C1[C@H](O)CC(=C/C=C2\CCC[C@]3(C)[C@@H]([C@H](C)CN4CCN(C)C[C@@H]4C)CC[C@@H]23)C[C@H]1O [Compound H011, (1R,3R)-5-(2-((1R,3aS,7aR,E)-1-((S)-1-((S)-2,4-dimethylpiperazin-1-yl)propan-2-yl)-7a-methyloctahydro-4H-inden-4-ylidene)ethylidene)-2-methylenecyclohexane-1,3-diol]	0.30

same assay, conditions: Test 6; vitamin D derivative 2 μM, T3 30 nM; 4 days

SMILES	Mean (number of MBP-positive cells/number of Hoechst33342-positive cells)
C[C@H](CN1CCC[C@@H]1C(C)(C)O)[C@H]1CC[C@H]2/C(=C/C=C3C[C@@H](O)C[C@H](O)C3)CCC[C@]12C [Compound G013, (1R,3R)-5-(2-((1R,3aS,7aR,E)-1-((S)-1-((R)-2-(2-hydroxypropan-2-yl)pyrrolidin-1-yl)propan-2-yl)-7a-methyloctahydro-4H-inden-4-ylidene)ethylidene)cyclohexane-1,3-diol]	0.55
C[C@H](CN1CCC[C@H]1C(C)(C)O)[C@H]1CC[C@H]2/C(=C/C=C3C[C@@H](O)C[C@H](O)C3)CCC[C@]12C [Compound G014, (1R,3R)-5-(2-((1R,3aS,7aR,E)-1-((S)-1-((S)-2-(2-hydroxypropan-2-yl)pyrrolidin-1-yl)propan-2-yl)-7a-methyloctahydro-4H-inden-4-ylidene)ethylidene)cyclohexane-1,3-diol]	0.44
COC(C)(C)[C@H]1CCCN1C[C@@H](C)[C@H]1CC[C@H]2/C(=C/C=C3C[C@@H](O)C[C@H](O)C3)CCC[C@]12C [Compound G015, (1R,3R)-5-(2-((1R,3aS,7aR,E)-1-((S)-1-((R)-2-(2-methoxypropan-2-yl)pyrrolidin-1-yl)propan-2-yl)-7a-methyloctahydro-4H-inden-4-ylidene)ethylidene)cyclohexane-1,3-diol]	0.52
C[C@H](CCN1CCCC[C@@H]1C)[C@H]1CC[C@H]2/C(=C/C=C3C[C@@H](O)C[C@H](O)C3)CCC[C@]12C [Compound G017, (1R,3R)-5-(2-((1R,3aS,7aR,E)-7a-methyl-1-((R)-4-((S)-2-methylpiperidin-1-yl)butan-2-yl)octahydro-4H-inden-4-ylidene)ethylidene)cyclohexane-1,3-diol]	0.52
C[C@H](CCN1CCCC[C@H]1C)[C@H]1CC[C@H]2/C(=C/C=C3C[C@@H](O)C[C@H](O)C3)CCC[C@]12C [Compound G018, (1R,3R)-5-(2-((1R,3aS,7aR,E)-7a-methyl-1-((R)-4-((R)-2-methylpiperidin-1-yl)butan-2-yl)octahydro-4H-inden-4-ylidene)ethylidene)cyclohexane-1,3-diol]	0.48

same assay, conditions: Test 7; vitamin D derivative 2 μM, T3 30 nM; 4 days

SMILES	Mean (number of MBP-positive cells/number of Hoechst33342-positive cells)
COC(C)(C)[C@@H]1CCCN1C[C@@H](C)[C@H]1CC[C@H]2/C(=C/C=C3C[C@@H](O)C[C@H](O)C3)CCC[C@]12C [Compound G016, (1R,3R)-5-(2-((1R,3aS,7aR,E)-1-((S)-1-((S)-2-(2-methoxypropan-2-yl)pyrrolidin-1-yl)propan-2-yl)-7a-methyloctahydro-4H-inden-4-ylidene)ethylidene)cyclohexane-1,3-diol]	0.37
C=C1[C@H](O)CC(=C/C=C2\CCC[C@]3(C)[C@@H]([C@H](C)CN4CCCC[C@@H]4C)CC[C@@H]23)C[C@H]1O [Compound H001, (1R,3R)-5-(2-((1R,3aS,7aR,E)-7a-methyl-1-((S)-1-((S)-2-methylpiperidin-1-yl)propan-2-yl)octahydro-4H-inden-4-ylidene)ethylidene)-2-methylenecyclohexane-1,3-diol]	0.48
C=C1[C@H](O)CC(=C/C=C2\CCC[C@]3(C)[C@@H]([C@H](C)CN4CCN(C)C[C@H]4C)CC[C@@H]23)C[C@H]1O [Compound H012, (1R,3R)-5-(2-((1R,3aS,7aR,E)-1-((S)-1-((R)-2,4-dimethylpiperazin-1-yl)propan-2-yl)-7a-methyloctahydro-4H-inden-4-ylidene)ethylidene)-2-methylenecyclohexane-1,3-diol]	0.28

same assay, conditions: Test 8; vitamin D derivative 2 μM, T3 30 nM; 4 days

SMILES	Mean (number of MBP-positive cells/number of Hoechst33342-positive cells)
C=C1[C@H](O)CC(=C/C=C2\CCC[C@]3(C)[C@@H]([C@H](C)CN4CCC[C@@H]4C(C)(C)O)CC[C@@H]23)C[C@H]1O [Compound H013, (1R,3R)-5-(2-((1R,3aS,7aR,E)-1-((S)-1-((R)-2-(2-hydroxypropan-2-yl)pyrrolidin-1-yl)propan-2-yl)-7a-methyloctahydro-4H-inden-4-ylidene)ethylidene)-2-methylenecyclohexane-1,3-diol]	0.35
C=C1[C@H](O)CC(=C/C=C2\CCC[C@]3(C)[C@@H]([C@H](C)CN4CCC[C@H]4C(C)(C)O)CC[C@@H]23)C[C@H]1O [Compound H014, (1R,3R)-5-(2-((1R,3aS,7aR,E)-1-((S)-1-((S)-2-(2-hydroxypropan-2-yl)pyrrolidin-1-yl)propan-2-yl)-7a-methyloctahydro-4H-inden-4-ylidene)ethylidene)-2-methylenecyclohexane-1,3-diol]	0.37
C=C1[C@H](O)CC(=C/C=C2\CCC[C@]3(C)[C@@H]([C@H](C)CN4CCC[C@@H]4C(C)(C)OC)CC[C@@H]23)C[C@H]1O [Compound H015, (1R,3R)-5-(2-((1R,3aS,7aR,E)-1-((S)-1-((R)-2-(2-methoxypropan-2-yl)pyrrolidin-1-yl)propan-2-yl)-7a-methyloctahydro-4H-inden-4-ylidene)ethylidene)-2-methylenecyclohexane-1,3-diol]	0.34
C=C1[C@H](O)CC(=C/C=C2\CCC[C@]3(C)[C@@H]([C@H](C)CN4CCC[C@H]4C(C)(C)OC)CC[C@@H]23)C[C@H]1O [Compound H016, (1R,3R)-5-(2-((1R,3aS,7aR,E)-1-((S)-1-((S)-2-(2-methoxypropan-2-yl)pyrrolidin-1-yl)propan-2-yl)-7a-methyloctahydro-4H-inden-4-ylidene)ethylidene)-2-methylenecyclohexane-1,3-diol]	0.30

same assay, conditions: Test 9; vitamin D derivative 2 μM, T3 30 nM; 4 days

SMILES	Mean (number of MBP-positive cells/number of Hoechst33342-positive cells)
C=C1[C@H](O)CC(=C/C=C2\CCC[C@]3(C)[C@@H]([C@H](C)CN4CCCC[C@H]4C)CC[C@@H]23)C[C@H]1O [Compound H002, (1R,3R)-5-(2-((1R,3aS,7aR,E)-7a-methyl-1-((S)-1-((R)-2-methylpiperidin-1-yl)propan-2-yl)octahydro-4H-inden-4-ylidene)ethylidene)-2-methylenecyclohexane-1,3-diol]	0.39
C=C1[C@H](O)CC(=C/C=C2\CCC[C@]3(C)[C@@H]([C@H](C)CN4CCCCC4(C)C)CC[C@@H]23)C[C@H]1O [Compound H003, (1R,3R)-5-(2-((1R,3aS,7aR,E)-1-((S)-1-(2,2-dimethylpiperidin-1-yl)propan-2-yl)-7a-methyloctahydro-4H-inden-4-ylidene)ethylidene)-2-methylenecyclohexane-1,3-diol]	0.30
C=C1/C(=C\C=C2/CCC[C@]3(C)[C@@H]([C@H](C)CN4CCCC[C@@H]4C)CC[C@@H]23)C[C@@H](O)C[C@H]1O [Compound I001, (1R,3R,Z)-5-(2-((1R,3aS,7aR,E)-7a-methyl-1-((S)-1-((S)-2-methylpiperidin-1-yl)propan-2-yl)octahydro-4H-inden-4-ylidene)ethylidene)-4-methylenecyclohexane-1,3-diol]	0.30
C=C1/C(=C\C=C2/CCC[C@]3(C)[C@@H]([C@H](C)CN4CCCC[C@H]4C)CC[C@@H]23)C[C@@H](O)C[C@H]1O [Compound I002, (1R,3R,Z)-5-(2-((1R,3aS,7aR,E)-7a-methyl-1-((S)-1-((R)-2-methylpiperidin-1-yl)propan-2-yl)octahydro-4H-inden-4-ylidene)ethylidene)-4-methylenecyclohexane-1,3-diol]	0.31
C=C1/C(=C\C=C2/CCC[C@]3(C)[C@@H]([C@H](C)CN4CCCCC4(C)C)CC[C@@H]23)C[C@@H](O)C[C@H]1O [Compound I003, (1R,3R,Z)-5-(2-((1R,3aS,7aR,E)-1-((S)-1-(2,2-dimethylpiperidin-1-yl)propan-2-yl)-7a-methyloctahydro-4H-inden-4-ylidene)ethylidene)-4-methylenecyclohexane-1,3-diol]	0.33
